Here are results for 13 compounds from patent publication US4138480A, “Novel anthracycline glycosides and methods of preparing the same” (priority 1976, dated 1979).

“Also recorded” adds a separate entry of the source. Where only a bound is given, the exact number is not on record here.

For data set [1], the target named is Na-K ATPase (Oryctolagus cuniculus, UniProt Q9N0Z6). The data set can be described thus: 50% inhibition of Na-K ATPase by doxorubicin analogs. It is filed as biochemical. The note with it: read-out: Concentration for 50% Inhibition NaK ATPase. An excerpt: (§1) From these facts, it can be deduced, on the basis of the results of Table I as well, that the metallic derivative of doxorubicin formed with the metal proportion 2:1 or higher, lacks the inhibiting effect on the Na-K ATPase, that is to say, they would lack cardiotoxicity. […] The remaining chelates described herein may be expected to behave similarly. […] The compounds have the structure depicted in Formula I wherein R is as in Formula II and R1 is as given.

In data set [2] the target is T1, ATPase sodium-potassium dependent enzyme (Na-K ATPase) (Oryctolagus cuniculus, UniProt Q9N0Z6).
T1 construct: isolated from rabbit heart; from tissue; host or cells: rabbit heart
The data set can be described thus: Activity of the ATPase Na-K dependent enzyme isolated from rabbit heart. Type of data set: biochemical.
Excerpt: as §1

Data set [3] has as its system leukemia 1210 mouse cells. As to the kind of experiment: Inhibition of DNA synthesis of leukemia 1210 mouse cells. Type of data set: cell-based. The note with it: read-out: Percent of Inhibition of DNA Synthesis.
Data set [4] in a line: Toxicity: survivors after one intraperitoneal injection in mice. The note with it: mouse, in vivo, ip. The procedure: The drugs were administered by only one intraperitoneal injection to groups of ten mice and the numbers of survivors were recorded after eight days.
Data set [5] deals with leukemia P-338 of the mouse. The data set can be described thus: Therapeutic activity in leukemia P-338 of the mouse. It is filed as in vivo. The note with it: 0 mg/kg 11 days.
The subject of data set [6] is leucocytes. As to the kind of experiment: Hematological toxicity, leucocyte count. Type of data set: in vivo. The settings on record: day 7, day 0 4.700.
A short description of data set [7]: Passage of hematoencephalic and intestinal barriers. The note with it: in vivo.
The conditions of data set [8]: cumulative doses; cited from earlier work.
In data set [9] the test system is rabbit electrocardiogram. The data set can be described thus: Electrocardiographic alterations after intravenous injection to the rabbit.
Data set [10] concerns spleen weight and immunocompetent cells. The data set can be described thus: Comparative testing of immunosuppressive properties (spleen weight, immunocompetent cells).
Setting [11] is: read-out: Percent of the ATPase Na-K Dependent Activity.

On to `COc1cccc2c1C(=O)c1c(O)c3c(c(O)c1C2=O)C[C@@](O)(C(C)=NNC(=O)c1ccc(N(C)C)cc1)C[C@@H]3O[C@H]1C[C@H](N)[C@H](O)[C@H](C)O1` [NSC-227013], for which the IC50 in data set [1] came out at 0.1 nM.

Consider `COc1cccc2c1C(=O)c1c(O)c3c(c(O)c1C2=O)C[C@@](O)(C(CO)=NNC(=O)c1ccccc1)C[C@@H]3O[C@H]1C[C@H](N)[C@H](O)[C@H](C)O1` [NSC-216071], for which the IC50 in data set [1] is 10000 nM.

For the compound `COc1cccc2c1C(=O)c1c(O)c3c(c(O)c1C2=O)C[C@@](O)(C(C)=NNC(=O)c1ccc(O)cc1)C[C@@H]3O[C@H]1C[C@H](N)[C@H](O)[C@H](C)O1` [NSC-221264], the IC50 in data set [1] came to 0.1 nM.

In the case of `COC(=O)[C@]1(O)Cc2c(O)c3c(c(O)c2[C@@H](O[C@H]2C[C@H](N)[C@H](O)[C@H](C)O2)C1)C(=O)c1c(OC)cccc1C3=O` [NSC-237638], the IC50 in data set [1] stood at 1 nM.

Take `COc1cccc2c1C(=O)c1c(O)c3c(c(O)c1C2=O)C[C@@](O)(/C(CO)=N/NC(=O)c1ccc(Cl)c(Cl)c1)C[C@@H]3OC1CC(N)C(O)C(C)O1` (stereo partly shown) [NSC-237672]: the IC50 in data set [1] was 10000 nM.

In the case of `COc1ccc(C(=O)NN=C(C)[C@]2(O)Cc3c(O)c4c(c(O)c3[C@@H](O[C@H]3C[C@H](N)[C@H](O)[C@H](C)O3)C2)C(=O)c2c(OC)cccc2C4=O)cc1` [NSC-219976], the IC50 in [1] amounted to 1 nM.

Consider `COc1cccc2c1C(=O)c1c(O)c3c(c(O)c1C2=O)CC(O)(/C(C)=N/NC(=O)c1ccc(-c2ccccc2)cc1)CC3OC1CC(N)C(O)C(C)O1` (stereo not shown) [NSC-236672], for which, in data set [1], the IC50 stood at 1 nM.

For the compound `CCCCC(=O)NN=C(C)[C@]1(O)Cc2c(O)c3c(c(O)c2[C@@H](O[C@H]2C[C@H](N)[C@H](O)[C@H](C)O2)C1)C(=O)c1c(OC)cccc1C3=O` [NSC-211391], in data set [1], the IC50 is 1000 nM.

As to `CCCOc1ccc(C(=O)NN=C(C)[C@]2(O)Cc3c(O)c4c(c(O)c3[C@@H](O[C@H]3C[C@H](N)[C@H](O)[C@H](C)O3)C2)C(=O)c2c(OC)cccc2C4=O)cc1` [NSC-234740], the IC50 in data set [1] was 10 nM.

Consider `COc1cccc2c1C(=O)c1c(O)c3c(c(O)c1C2=O)C[C@@](O)(/C(C)=N/NC(=O)c1ccc(Cl)c(Cl)c1)C[C@@H]3OC1CC(N)C(O)C(C)O1` (stereo partly shown) [NSC-221266], for which the IC50 in [1] stood at 1000 nM.

Take `COc1cccc2c1C(=O)c1c(O)c3c(c(O)c1C2=O)C[C@@](O)(C(C)=NNC(=O)c1ccc([N+](=O)[O-])cc1)C[C@@H]3O[C@H]1C[C@H](N)[C@H](O)[C@H](C)O1` [NSC-221265]: the IC50 in data set [1] was 10000 nM.

Broadly, the inhibition is how much of the control response was suppressed. In the case of `COc1cccc2c1C(=O)c1c(O)c3c(c(O)c1C2=O)C[C@@](O)(C(=O)CO)C[C@@H]3O[C@H]1C[C@H](N)[C@H](O)[C@H](C)O1` [Doxorubicin], the “effect of calcium on ATPase inhibition” value in [2] is listed as “counteracted by calcium”. Also, the “inhibition of Na-K ATPase, in words” value in data set [2] was “strong inhibitor; also recorded: potent inhibitor”. In addition, the activity at 10 pM in data set [2] (setting [11]) came to 40%. The activity at 0.001 µM in data set [2] (setting [11]) amounted to 25%. Moreover, in data set [2] (setting [11]), the activity at 0.1 µM was 25%. Moreover, the activity at 10 µM in data set [2] (setting [11]) is 25%. The activity at 100 fM in [2] (setting [11]) came out at 65%. Besides, the inhibition at 3 µM in [3] (3 μM) is 60%. Besides, in data set [3] (5 μM), the inhibition at 5 µM amounted to 68%. Further, the inhibition at 7.5 µM in data set [3] (7.5 μM) is 75%. Also, in data set [3] (10 μM), the inhibition at 10 µM is 90%. The survival at 192 h turned out to be 100% in [4] (10 mg/kg); 60% in data set [4] (20 mg/kg); 0% in data set [4] (30 mg/kg); 0% in data set [4] (40 mg/kg); 0% in [4] (50 mg/kg); 0% in data set [4] (60 mg/kg). Besides, the “Days of Mean Survival of Leukemic Mice” value in data set [5] (4 mg/kg i.p.) is listed as 50 days; in [5] (8 mg/kg i.p.), 48 days; in data set [5] (12 mg/kg i.p.) it was 42 days; in [5] (24 mg/kg i.p.), 6 days; in data set [5] (36 mg/kg i.p.) it was 4 days. Besides, the “Leucocyte Count/mm^3” value was 3.300 /mm^3 in data set [6] (10 mg/kg) and 2.400 /mm^3 in data set [6] (20 mg/kg). For the same compound, the “passing both hematoencephalic and intestinal barriers” value in data set [7] is on record as “does not to an effective degree”. In data set [8], the “cumulative dose attended by severe, oftentimes lethal cardiotoxicity” value was greater than 500 mg. per square meter. Moreover, in [9], the “alterations of the electrocardiogram, in words” value is recorded as “very intense”. Also, the “immunosuppression (spleen weight and immunocompetent cells)” value in data set [10] is “depressed spleen weight and immunocompetent cells to a significant extent”.

`CCc1ccc(C(=O)N/N=C(\C)[C@]2(O)Cc3c(O)c4c(c(O)c3[C@H](O[C@H]3C[C@H](N)[C@H](O)[C@H](C)O3)C2)C(=O)c2c(OC)cccc2C4=O)cc1` [NSC-233854]: the IC50 in data set [1] stood at 100 nM.
